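How tested: cells in 96-well plates exposed to compound for 48 hours at five concentrations. GI50 = concentration required for 50% inhibition of growth.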 The source made the active and inactive calls. No stated cut-off is given here; in the data, active = GI50 up to about 1.1 µM and inactive = higher.
Legend:
Test in all cases: NCI anticancer screen, dose series, 48 h
[1] = tested on: M19-MEL
[2] = tested on: LXFL 529
[3] = tested on: XF498
[4] = tested on: RXF 631
[5] = tested on: KM-20L2
[6] = tested on: DLD-1
[7] = tested on: DMS-273
[8] = tested on: HOP-18

Measured: GI50

O=c1cc(/C=C/c2ccccc2)c2ccc(O/C(=C\c3ccccc3)c3nc4ccccc4c(=O)o3)cc2o1
inactive: [1] 25.3 µM | [2] 14.8 µM | [3] 14.9 µM | [4] 28.1 µM | [5] 31.5 µM | [6] 26.7 µM | [7] 23 µM

CN1C(=O)CC2(C)c3cc(C=O)ccc3N(C)C12 (configuration not stated)
inactive: [1] > 100 µM | [2] > 100 µM | [3] > 100 µM | [4] > 100 µM | [5] > 100 µM | [6] > 100 µM | [8] > 100 µM

COC(=O)C1CCC(N2C(=O)CCC2C(=O)OC)=N1 (configuration not stated)
inactive: [1] > 100 µM | [2] > 100 µM | [3] > 100 µM | [4] > 100 µM | [5] > 100 µM | [6] > 100 µM | [7] > 100 µM | [8] > 100 µM

CC(=O)OCC1OC(n2c(-c3ccc(C)cc3)cc(-c3ccccc3)c(C#N)c2=O)C(OC(C)=O)C(OC(C)=O)C1OC(C)=O (configuration not stated)
inactive: [1] > 100 µM | [2] > 100 µM | [3] 86.9 µM | [4] > 100 µM | [5] > 100 µM | [6] > 100 µM

CCOC(=O)C(=Cc1ccc(Oc2ccccc2)cc1)C(=O)OCC
inactive: [2] 2.29 µM | [3] 4.32 µM | [4] 3.03 µM | [5] 4.65 µM | [6] 2.14 µM | [7] 1.69 µM | [8] 13.8 µM

O=C(N/C(=C\c1ccccc1Cl)c1nc2ccccc2[nH]1)c1ccccc1
inactive: [1] 33 µM | [2] 21.9 µM | [3] 23.8 µM | [4] 26.5 µM | [5] 22.8 µM | [6] 30.2 µM

Cc1nc2nn(Cc3ccccc3)cc2c(=O)o1
inactive: [1] > 100 µM | [2] > 100 µM | [3] 74.5 µM | [4] > 100 µM | [5] > 100 µM | [6] > 100 µM | [7] > 100 µM

CC(C)(C)NNC(=O)/C(=C/c1ccc(Oc2ccc(Cl)c(Cl)c2)cc1)NC(=O)c1ccccc1
inactive: [1] > 100 µM | [2] > 100 µM | [3] > 100 µM | [4] 34 µM | [5] 95.3 µM | [6] 31.1 µM | [7] 21.5 µM | [8] > 100 µM

O=C(N/N=C/c1ccccc1O)N/N=C/c1ccccc1O
inactive: [1] > 100 µM | [2] > 100 µM | [3] > 100 µM | [4] > 100 µM | [5] > 100 µM | [6] > 100 µM | [7] > 100 µM | [8] > 100 µM

O=C(NO)c1ccc(O)c(O)c1
inactive: [1] > 100 µM | [2] > 100 µM | [3] > 100 µM | [4] > 100 µM | [5] > 100 µM | [6] > 100 µM | [7] 27.8 µM | [8] 72.3 µM
